Entries after “also recorded” stand apart in the source; their conditions may differ.
Assays:
rat cortical stem cells [1] = test: Astrocyte differentiation of rat cortical stem cells (GFAP immunofluorescence); assay type: cell-based; conditions: 6 days valproate vs control
Description: (§1) Drug treatment. For immunofluorescence and Western analysis, cells were treated daily with either 0.5 mM of valproate (Sigma), 10 ng/ml of BDNF (R & D Systems), 20 ng/ml of NT-3 (R & D Systems), 1 nM 9cis retinoic acid (Sigma) or a dilution of NCM for 6 or 7 days. In some experiments valproate was also added with NCM and/or 9cis RA for 7 days. For human stem cell experiments, valproate (0.5 mM) or BDNF (25 ng/ml) was added for 9 days. For neurite outgrowth experiments, cells were treated for 1 day with 0.5 mM valproate or 50 ng/ml of BDNF. Where applicable, medium was changed every 2 days. After about 5–10 days, preferably on day 6 (i.e., after 6 days of drug exposure) the cells were fixed with a 4% solution of para-formaldehyde (PFA) in PBS, prepared as follows: Immunofluorescent staining and visualization. Cells were plated at 20,000 cells/well in poly-L-ornithine/fibronectin (1 mg/ml) coated 24-well plates. […] For immunofluorescence, 3 different black and white pictures were taken by field of interest with a digital camera CoolSnap Fx (Princeton) corresponding to the exposure of Cy2, Cy3 and Hoechst fluorescence. […] The percentage of neurons, astrocytes and GABAergic cells was determined by comparing the number of cells immunopositive for β-tubulin III, GFAP and GABA to the number of bis-benzamide stained nuclei (i.e., total cell number). […]

rat cortical stem cells [2] = test: Differentiation of rat cortical stem cells into GABA expressing cells (GABA immunocytochemistry); assay type: cell-based; conditions: 6 days valproate vs control
Description: as §1

[3] = tested on: teratocarcinoma cell line NTera-2; conditions: NTera-2 cells (Skladchikova et al.); cited from earlier work

CCCC(CCC)C(=O)O [valproate, 2-Propylpentanoic acid]
expression of GFAP (astrocyte marker) (rat cortical stem cells [1]): dramatically inhibited | number and percentage of cells immuno-positive for GABA (rat cortical stem cells [2]): dramatic increase in the number; also recorded: increase in the number of GABA-positive neurons | proliferation and retinoic acid-induced neuronal differentiation [3]: inhibit the proliferation and block retinoic acid-induced neuronal differentiation
